Test results reported in patent US20240382520A1, “COMPOSITION FOR PREVENTING AND TREATING CANCER THROUGH MITOCHONDRIAL METABOLISM REGULATION CONTAINING NANOGRAPHENE STRUCTURE” (SEOUL NATIONAL UNIVERSITY R & DB FOUNDATION, priority 2021, published 2024).

Tested on: colon cancer
Experiment: Oral administration in colon cancer model induced with Azoxymethane and Dextran sodium sulfate (DSS)
Format: in vivo, mouse
Description: It was determined whether orally administering the nanographene structure or a modified structure thereof has an effect on cancer occurrence and the mitigation of progression in vivo. Specifically, according to Table 1, rats that were not induced with colon cancer (sham group) and rats that were induced with colon cancer and administered with nanographene oxide (danGO group) were used, and rats that were induced with colon cancer were used as a negative control group (vehicle group), and as a positive control group, rats that were administered with 5-fluorouracil (5-FU), which is an anticancer drug, were prepared. In the negative control group, colon cancer was induced by using Azoxymethane and Dextran sodium sulfate (DSS). In the danGO group which was the experimental group, danGO was orally administered at a dose of 250 μg/mouse 5 times every 3 days to rats that were induced with colon cancer.
In the same manner as in Example 7-1, the effect of modified nanographene oxide, NGO-NH2, on in vivo cancer occurrence and progression mitigation was confirmed.
Next, the spleen was separated and the size and weight were measured in order to determine the effect on the degree of systemic inflammation. The spleen is an important lymphoid organ, accounting for about 25% of the body weight of the lymphatic organ. […]

**Q.** Which results are given for O=c1[nH]cc(F)c(=O)[nH]1 [5-FU, 5-fluorouracil]?
**A.** length of the colon compared to the vehicle group (Example 7-1, oral, danGO 250 μg/mouse 5 times every 3 days): preserved statistically significantly; alleviation of disease (colon length and diameter) compared to the vehicle group (Example 7-2): significantly alleviated
